One assay deals with T1, PDE5 (Homo sapiens, UniProt O76074).
T1 construct: made in house; host or cells: Saccharomyces cerevisiae BJ2-54
Kind of assay: Inhibition of PDE5. In kind it is biochemical. The protocol:
Recombinant production of human PDE1B, PDE2, PDE4A, PDE4B, PDE4C, PDE4D, PDE5, and PDE7 was carried out similarly to that described in Example 7 of U.S. Pat. No. 5,702,936, incorporated herein by reference, except that the yeast transformation vector employed, which is derived from the basic ADH2 plasmid described in Price et al., Methods in Enzymology, 185, pp. 308–318 (1990), incorporated yeast ADH2 promoter and terminator sequences and the Saccharomyces cerevisiae host was the protease-deficient strain BJ2–54 deposited on Aug. 31, 1998 with the American Type Culture Collection, Manassas, Va., under accession number ATCC 74465. Transformed host cells were grown in 2×SC-leu medium, pH 6.2, with trace metals, and vitamins. After 24 hours, YEP medium-containing glycerol was added to a final concentration of 2×YET/3% glycerol. […]
Phosphodiesterase activity of the preparations was determined as follows. […] The [32P]5′-AMP or [32P]5′-GMP then was quantitatively converted to free [32P]phosphate and unlabeled adenosine or guanosine by the action of snake venom 5′-nucleotidase. […] PDE enzyme was present in quantities that yield <30% total hydrolysis of substrate (linear assay conditions). […] After centrifugation (750×g for 3 minutes) to sediment the charcoal, a sample of the supernatant was taken for radioactivity determination in a scintillation counter and the PDE activity was calculated. […]

For a further assay, the target named is T2, PDE3A (Homo sapiens, UniProt Q14432).
T2 construct: Plasmid pBB-PDE3A contained the complete open reading frame of PDE3A; made in house; host or cells: Sf9 (baculovirus)
Briefly: Inhibition of PDE3A. In kind it is biochemical.

A further assay deals with serum TNFα. Kind of assay: Combined mouse endotoxin-stimulated TNFα release assay (serum TNFα). In kind it is in vivo. As to conditions: female Balb/c mice, i.p., LPS model. The protocol: The purpose of this study was to determine the efficacy of PDE4 inhibitors in vivo in an LPS mouse model together with a determination with respect to central nervous system (CNS) side-effects manifested by a decrease in spontaneous mobility.
The test animals were female Balb/c mice, having an average weight of about 20 g. The PDE4 inhibitors, formulated in 30% Cremophor® EL, were administered via intraperitoneal (i.p.) injections at doses of 0.1, 1.0, 10.0, and 100 mg/kg. Individual dose volumes (about 150 μL) were adjusted based on the body weights measured. One hour later, 5 mg/kg LPS in a final volume of 200 μL was injected via the tail vein to each animal. Ninety minutes following the LPS treatment, the animals were bled and serum samples were collected before being stored at −70° C. until assayed.
For efficacy determination, the serum samples were diluted two-fold and TNFα levels were determined using the CYTOSCREEN® Immunoassay Kit (Biosource International). The data were averaged between triplicate sample subjects for each of the tested compounds.

This note sets out measurements from patent US7087634B2, “Cyclic AMP-specific phosphodiesterase inhibitors” (ICOS Corporation, priority 1999, dated 2006).

By IC50 is commonly meant the point on the concentration scale where inhibition reaches its midpoint. A lower IC50 goes with inhibition by little substance.

T2 sequence (Q14432 whole entry): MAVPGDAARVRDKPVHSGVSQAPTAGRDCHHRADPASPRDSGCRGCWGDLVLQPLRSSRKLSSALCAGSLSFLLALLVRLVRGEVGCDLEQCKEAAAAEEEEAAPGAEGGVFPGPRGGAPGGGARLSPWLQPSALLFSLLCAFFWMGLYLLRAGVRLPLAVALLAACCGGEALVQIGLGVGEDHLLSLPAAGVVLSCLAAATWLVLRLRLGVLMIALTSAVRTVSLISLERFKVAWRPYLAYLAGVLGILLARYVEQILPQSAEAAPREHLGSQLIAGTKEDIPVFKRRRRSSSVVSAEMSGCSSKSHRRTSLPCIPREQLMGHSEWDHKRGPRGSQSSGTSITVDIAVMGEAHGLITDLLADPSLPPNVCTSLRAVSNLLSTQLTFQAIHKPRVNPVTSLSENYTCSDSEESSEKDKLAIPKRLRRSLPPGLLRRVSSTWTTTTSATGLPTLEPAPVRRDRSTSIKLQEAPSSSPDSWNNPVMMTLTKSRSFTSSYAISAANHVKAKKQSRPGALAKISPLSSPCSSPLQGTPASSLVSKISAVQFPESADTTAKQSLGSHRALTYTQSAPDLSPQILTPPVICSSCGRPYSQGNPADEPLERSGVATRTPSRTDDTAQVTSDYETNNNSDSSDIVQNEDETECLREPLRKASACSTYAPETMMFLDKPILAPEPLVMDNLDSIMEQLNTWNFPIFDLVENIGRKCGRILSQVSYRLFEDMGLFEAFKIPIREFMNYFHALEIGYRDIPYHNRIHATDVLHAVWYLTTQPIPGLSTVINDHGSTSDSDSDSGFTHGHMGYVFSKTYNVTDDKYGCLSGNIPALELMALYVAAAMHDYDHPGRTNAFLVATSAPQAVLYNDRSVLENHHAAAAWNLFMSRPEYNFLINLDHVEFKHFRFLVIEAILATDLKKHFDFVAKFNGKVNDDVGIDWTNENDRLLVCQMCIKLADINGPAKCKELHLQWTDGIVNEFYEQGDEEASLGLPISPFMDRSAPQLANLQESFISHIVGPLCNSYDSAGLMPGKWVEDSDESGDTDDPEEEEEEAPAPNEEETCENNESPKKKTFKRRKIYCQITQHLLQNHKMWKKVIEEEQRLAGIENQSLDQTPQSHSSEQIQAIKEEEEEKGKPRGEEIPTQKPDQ

For the molecule `CCOC(=O)c1c(C)nn(-c2cccc([N+](=O)[O-])c2)c1C` [Example 2, 3,5-dimethyl-1-(3-nitrophenyl)-1H-pyrazole-4-carboxylic acid ethyl ester], the IC50 at PDE5 was 25.6 µM; at PDE3A it was 137 µM. Further, the results for the “% TNFQ Inhibition” value with serum TNFα (10 mg/kg) and with serum TNFα (100 mg/kg) were 70% and 100%, respectively.
